Assay results as given in patent publication US8258178B2, “Agents for preventing attachment of barnacle consisting of organic solvent extracts of red alga Laurencia sp. and compounds isolated therefrom” (Central Research Institute of Electric Power Industry, priority 2007, dated 2012).
In brackets after ≈: the same amount, converted by molar mass. Where two headings read alike, the source gives them in different places.

What was measured:
[1] = in vivo; type: in vivo; details: Amphibalanus amphitrite (barnacle, cypris larvae), in vivo; concentration at which dead individuals after 5 days account for 50% of all individuals; read-out: LC50 (toxicity to larvae)
Method: (§1) Adult samples of Amphibalanus amphitrite collected from Lake Hamanako, Shizuoka-ken in the breeding season (May to November in Hamanakako) were subject to drying stimulus for about 12 hours (drying stimulus refers to taking out barnacles out of the breeding water and let them dry), and then they were put into a water bath, thereby allowing eggs to hatch into nauplius larvae (if the adults are not in a breeding season, they are subject to food satiation breeding for about two weeks at a water temperature of 20° C. to 25° C., and after subjecting to drying stimulus for about 12 hours, they are housed in a water bath to allow eggs to hatch into nauplius larvae). […] At 5th day of breeding, the nauplius larvae metamorphosed into cypris larvae, which were collected using light or the like and refrigerated (4° C.) for two days, and then used for attachment•metamorphosis inhibition tests.
(§2) Into a 24-well multi plate made of polystyrene (Corning, Inc.) was put an ethanol solution in which a methanol extract of red algae laurencia sp. of the present invention or the compound of the present invention was dissolved, and allowed to dry, followed by charging of 2 mL filtered seawater. Six individual cypris larvae of Amphibalanus amphitrite were put into each well and bred at 25° C. for two to five days, and the number of individuals that metamorphosed from cypris larvae into barnacle immatures while attaching to the plate surface, the number of individuals not attached thereto and still swimming as cypris larvae, and the number of dead individuals were counted under a stereoscopic microscope. The tests were conducted using four wells each for a same concentration of the compound of the present invention, and the tests were repeated three or more times. […] Furthermore, the concentration at which the ratio of the number of attaching•metamorphosing individuals to the number of all the subject individuals after 2 days is one-half in comparison with the case not having the compounds of the present invention, was represented by EC50. Concentrations (μg/ml) were represented by the value obtained by dividing the amount of the methanol extract of red algae laurencia sp. (μg) or the amount of the compound (μg) added per well by 2 mL of filtered seawater added per well.

[2] = tested on: cypris larvae of Amphibalanus amphitrite; assay: whole plant or invertebrate; type: in vivo; details: for EC50: Amphibalanus amphitrite, 48 h, read-out: EC50 of attachment•metamorphosis of cypris larvae
Method: as §1, §2

[3] = tested on: barnacle; details: reported in Non-Patent Documents 1 and 2; cited from earlier work
[4] = Non-Patent Document 7; cited from earlier work
[5] = after 2 days, concentration at which ratio of attaching•metamorphosing individuals is one-half of the case without compound, 25° C., 24-well plate, 2 mL filtered seawater

For `CC(C)=CCC[C@@](C)(O)[C@@H](O)CC[C@](C)(O)[C@H]1CC[C@H]2O[C@@H]([C@]3(C)CC[C@@H](Br)C(C)(C)O3)CC[C@]2(C)O1` [Magireol A], the LC50 at 5 days [1] was 14.4 µg/mL (≈ 24.4 µM) and the EC50 [2] was 0.3 µg/mL (≈ 0.509 µM).

For `C=C1C[C@H](O)[C@H](Br)C(C)(C)[C@]12CC=C(C)CC2` [deschloroelatol], the “barnacle attachment inhibitory activity” value [3] is given as “have a barnacle attachment inhibitory activity”.

In the case of `Cc1cc(O)c([C@]2(C)CC[C@@H]3C[C@@]32C)cc1Br` [laurinterol], the “barnacle attachment inhibitory activity” value [3] is given as “possess a barnacle attachment inhibitory activity”.

In the case of `C=C1[C@@H](C)CC[C@@]1(C)c1cc(Br)c(C)cc1O` [isolaurinterol], the “barnacle attachment inhibitory activity” value [3] is given as “possess a barnacle attachment inhibitory activity”.

In the case of `C#C/C=C/C[C@@H](OC(C)=O)[C@H]1C/C=C\C[C@H](Br)[C@@H](CC)O1` [Laurencin], the “EC50 of attachment•metamorphosis of cypris larvae” value [2, 5] is reported as 0.23 µg/mL and the toxicity to larvae ([2]; at 100 μg/mL) is reported as “no toxicity at all”.

In the case of `CC/C(Br)=C\C=C\[C@@H](O)[C@H](Br)[C@@H]1O[C@@H](C=C=CBr)C[C@@H]1O` [Omaezallene], the LC50 at 5 days [1] is reported as 3.4 µg/mL (≈ 6.98 µM) and the EC50 [2, 5] is reported as 0.22 µg/mL.

With `CC[C@@H]1[C@@H]2[C@H]3OC(C=C=CBr)C[C@H]3O[C@]2(O)[C@@H](Br)C[C@H]1Br` (stereo partly drawn) [Hachijojimallene A] the “EC50 of attachment•metamorphosis of cypris larvae” value [2, 5] was 0.15 µg/mL and the “LC50 (toxicity to larvae)” value ([2]; concentration at which dead individuals after 5 days account for 50% of all individuals) was 9.8 µg/mL (≈ 20.1 µM).

In the case of `CC(C)(O)[C@H]1CC[C@](C)([C@@H](O)CC[C@](C)(O)[C@H]2CC[C@H]3O[C@@H]([C@]4(C)CC[C@@H](Br)C(C)(C)O4)CC[C@]3(C)O2)O1` [Thyrsiferol], the cytotoxicity [4] is given as “known to have cytotoxicity”, the LC50 at 5 days [1] is given as 2.5 µg/mL (≈ 4.13 µM) and the EC50 [2] is given as 0.11 µg/mL (≈ 0.182 µM).

In the case of `C=C1C[C@H](O)[C@H](Br)C(C)(C)[C@@]12CCC(C)=C(Cl)C2` [elatol], the “barnacle attachment inhibitory activity” value [3] is listed as “have a barnacle attachment inhibitory activity”.
